Measurements reported in PubChem BioAssay AID504322 (Emory University Molecular Libraries Screening Center, 2011).
Calls of active or inactive are those of the source. How the calls were made is not given here.

Tested on: CHOP reporter cell assay, percent of control
Experiment: CHOP reporter inhibitor potency, dose response, cell-based (AID 504322);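 further: CHO cells carrying a CHOP reporter stimulated with tunicamycin to induce ER stress; potency is for inhibition of the stress-induced reporter signal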

O=C1C(Nc2ccc(O)cc2)=C/C(=N/S(=O)(=O)c2cccs2)c2ccccc21
IC50: 1.19 µM

CCOC(=O)N=Nc1c2ccccc2c2nc3no[nH]c3nc12
IC50: 4.21 µM

Nc1ccc2c(c1)C(=O)C(=O)c1ccccc1-2
IC50: 5.08 µM (inactive)

CCOc1ccc(C(=O)C(CCC(CN(C)C)C(=O)c2ccc(OCC)cc2)CN(C)C)cc1 (stereo not drawn)
IC50: 9.69 µM (inactive)

Oc1[nH]c2ccccc2c1N=NC(=S)NCCc1ccccc1
IC50: 9.82 µM (inactive)

CC(=O)OC[C@]12CCC(C)=C[C@H]1O[C@@H]1[C@H](O)[C@@H](OC(C)=O)[C@@]2(C)[C@]12CO2
IC50: < 0.16 µM (inactive)

COc1c(CC=C(C)C)cc(C2CC(=O)c3c(O)cc(O)cc3O2)cc1CC=C(C)C (stereo not drawn)
IC50: > 10 µM (inactive)

CC(C)Cn1c(N)c(C(=O)COC(=O)CC23CC4CC(CC(C4)C2)C3)c(=O)n(C)c1=O
IC50: 0.82 µM

CC(C)(C)c1ccc(OCC(=O)N/N=C/C2CC=CCC2)cc1 (stereo not drawn)
IC50: 7.48 µM (inactive)

COCCCn1c(N)c(C(=O)NCCC(C)C)c2nc3ccccc3nc21
IC50: 9.46 µM (inactive)

CC(C)(C)c1ccc(C2CC2C(=O)N/N=C\c2ccc[nH]2)cc1 (stereo not drawn)
IC50: 4.18 µM (inactive)

O=[N+]([O-])c1ccc(NC(=S)NCCc2ccc(Cl)cc2)cc1
IC50: > 10 µM (inactive)

O=C(c1ccco1)N1CCN(c2c(-c3ccccc3)c3cc(Cl)ccc3[nH]c2=O)CC1
IC50: 5.65 µM (inactive)

CCOC(=O)c1c(-n2c(C)cc(C=C3C(=O)NC(=S)NC3=O)c2C)sc2c1CCCC2
IC50: 5.85 µM (inactive)

Cc1cc(/C=N/n2cnnc2)c(C)n1-c1ccc(OCc2ccccc2F)cc1
IC50: 4.88 µM

CC1=CC(C)(C)N(C(=O)c2ccc(F)cc2)c2cc3c(cc21)OCO3
IC50: 5.31 µM (inactive)

O=S1(=O)C=C(Sc2nnc(-c3ccccc3)o2)c2ccccc21
IC50: 4.34 µM

COc1ccc(OCc2n(CC(=O)OC3CC(C)CCC3C(C)C)c3ccccc3[n+]2C)cc1 (stereo not drawn)
IC50: > 10 µM (inactive)

Cc1cc(-c2n[nH]c(=S)n2/N=C/C(Br)=C/c2ccccc2)n[nH]1
IC50: > 10 µM (inactive)

CCOc1ccc(-c2n[nH]c(C)c2Oc2ccc(OC)cc2)c(O)c1
IC50: > 10 µM (inactive)

Cc1ccc(CNCC(O)(c2ccccc2)c2ccc(Cl)cc2)cc1 (stereo not drawn)
IC50: 9.63 µM (inactive)

CCCC(NCC(O)COc1ccc(-c2ccccc2)cc1)c1ccccc1 (stereo not drawn)
IC50: 9.3 µM (inactive)

O=C(CNC1CCCCCC1)Nc1ccccc1N1CCCCC1
IC50: 7.73 µM (inactive)

CC(=O)C1=C(c2ccc(Br)cc2)C(=O)c2ccccc2C1=O
IC50: 5.57 µM (inactive)

COc1ccccc1NCC(O)COc1ccc(C(C)(C)C)cc1 (stereo not drawn)
IC50: 9.32 µM (inactive)

CCn1c(C)nc2cc(-c3nc4n(n3)Cc3ccccc3-4)ccc21
IC50: < 0.16 µM (inactive)

O=C(Nc1ccc(Oc2c(F)c(F)c(F)c(F)c2F)cc1)OC1CCN2Cc3ccccc3N=C12 (stereo not drawn)
IC50: 8.37 µM (inactive)

O=C1N(c2ccccc2)C[C@@H]2C[C@@H](c3cccs3)N3CCC[C@@]123
IC50: 5.69 µM (inactive)

CCC(=O)N1N=C(c2c(-c3ccccc3)c3cc(Cl)ccc3[nH]c2=O)CC1c1ccco1 (stereo not drawn)
IC50: 8.96 µM (inactive)

CCOC(=O)c1cnc(-n2nc(C)cc2C)nc1NC1CCCCC1
IC50: > 10 µM (inactive)

O=C(CNc1cccc(C(F)(F)F)c1)N/N=C/c1cccc(Br)c1
IC50: > 10 µM (inactive)

CNC(=O)NC(=O)C(C)OC(=O)c1oc2ccccc2c1CSc1ccc(Cl)cc1 (stereo not drawn)
IC50: > 10 µM (inactive)

CCc1ccc(/C=c2\s/c(=C\C(=O)C(C)(C)C)[nH]c2=O)cc1
IC50: 9.29 µM (inactive)

CCn1c(C)nc2cc(-c3nnc(-c4c(-c5ccccc5)noc4C)o3)ccc21
IC50: 8.88 µM (inactive)

COc1cc2c(cc1OC)C(c1ccccc1)N(C(=O)CCl)CC2 (stereo not drawn)
IC50: 9.53 µM (inactive)

O=C(Nc1cccc(-c2nc3ncccc3o2)c1)c1sc2ccccc2c1Cl
IC50: 2.47 µM

O=C1c2ccccc2-c2onc3ccc(Oc4ccccc4)c1c23
IC50: 9.64 µM (inactive)

Cc1ccc(-c2nnc(-c3ccc(NC(=O)Cc4cccs4)cc3)o2)cc1
IC50: 8.41 µM (inactive)

NC(=S)n1[nH]c(-c2ccc([N+](=O)[O-])cc2)c(N=Nc2ccc(Cl)cc2)c1=O
IC50: 5.74 µM (inactive)

C=C1C(=O)O[C@@H]2C[C@@H](C)[C@@H]3C=CC(=O)[C@@]3(C)[C@@H](OC(C)=O)[C@H]12
IC50: 2.48 µM

COc1ccc2nc(Nc3nc(CSc4nc5ccccc5[nH]4)cc(=O)[nH]3)nc(C)c2c1
IC50: 2.33 µM (inactive)

Cc1cccc(OCc2nnc(SCc3nc4cc(C(F)(F)F)ccc4c(=O)[nH]3)o2)c1
IC50: 8.17 µM (inactive)

CCN(CCO)c1ncnc2c1sc1nc(CC(C)C)c3c(c12)CC(C)(C)OC3
IC50: 9.11 µM (inactive)

COc1cc(/C=C2\CC/C(=C\c3cc(OC)c(O)c(OC)c3)C2=O)cc(OC)c1O
IC50: 1.84 µM (inactive)

CC(C)c1ccc(-c2cc(C(=O)N3N=C(C(F)F)CC3(O)C(F)F)c3ccccc3n2)cc1 (stereo not drawn)
IC50: 8.38 µM (inactive)

CCSCCc1nnc(NC(=O)Nc2cccc(C(F)(F)F)c2)s1
IC50: 6.82 µM (inactive)

CC1CN(S(=O)(=O)c2ccc(C(=O)Nc3nc(-c4cc5ccccc5o4)cs3)cc2)CC(C)O1 (stereo not drawn)
IC50: 9.56 µM (inactive)

Cc1ccc(N=Cc2cc3c(cc2O)OC(N)=C(C#N)C3c2ccccc2)cc1 (stereo not drawn)
IC50: > 10 µM (inactive)

FC(F)(F)c1nnc(-c2ccccc2)nc1Sc1ccc(Cl)cc1
IC50: > 10 µM (inactive)

C=CCn1c(O)c(C(CC)=Nc2ccc(N(CC)CC)cc2)c(=O)[nH]c1=O
IC50: 2.56 µM

FC(F)(F)c1cccc(Sc2nc(-c3ccccc3)nnc2C(F)(F)F)c1
IC50: 9.58 µM (inactive)

FC(F)C(F)(F)C(F)(F)C(F)(F)c1cc(-c2ccccc2)n[nH]1
IC50: 9.67 µM (inactive)

Fc1c(F)c(C(F)(F)F)c(F)c(F)c1N/N=C\c1cccs1
IC50: 4.78 µM

O=C1C=CC(=O)N1CCCCCCN1C(=O)C=CC1=O
IC50: 4.94 µM

CCc1cc(-c2n[nH]c(C)c2Oc2ccc(C(C)C)cc2)c(O)cc1O
IC50: 7.24 µM (inactive)

CC[C@@H](C)[C@H](NC(=O)OC(C)(C)C)c1nnc(S(=O)(=O)Cc2cc(C)ccc2C)o1
IC50: > 10 µM (inactive)

Cc1ccc(-n2ncc(Br)c(Br)c2=O)cc1
IC50: 4.78 µM

Cc1cccc(OCc2n(CC(=O)OC3CC(C)CCC3C(C)C)c3ccccc3[n+]2C)c1 (stereo not drawn)
IC50: > 10 µM (inactive)

O=C(/C=C/Sc1ncn[nH]1)c1ccc(Cl)cc1
IC50: > 10 µM (inactive)

Cc1nc(Nc2nc(CSc3nc4ccccc4[nH]3)cc(=O)[nH]2)nc2ccccc12
IC50: 5.68 µM (inactive)

FC(F)(F)c1cccc(NC(=S)Nc2ccc(Cl)cc2Cl)c1
IC50: 6.1 µM (inactive)

Oc1ccc(N=Nc2cccc(C(F)(F)F)c2)cc1C=Nc1ccc(N2CCOCC2)cc1
IC50: 6.97 µM (inactive)

Cc1cc(C(=O)CCl)c(C)n1-c1cccc(S(=O)(=O)N2CCOCC2)c1
IC50: > 10 µM (inactive)

CCOc1cc(S(=O)(=O)Nc2cc(C)cc(C)c2)ccc1Cl
IC50: 9.51 µM (inactive)

C#CC(=O)N(c1cc(OC)ccc1OC)C(C(=O)NC1CCCC1)c1cccs1 (stereo not drawn)
IC50: > 10 µM (inactive)

COCCn1cnc2c(c1=O)c1nc3ccccc3nc1n2/N=C/c1cccc(OC)c1
IC50: 8.74 µM (inactive)

O=S(=O)(Nc1ccccc1)c1ccc(Oc2ncc(C(F)(F)F)cc2Cl)cc1
IC50: > 10 µM (inactive)

C[C@H](NC(=O)c1[nH]cnc1C(=O)Nc1ccc(Cl)cc1)C(=O)OC(C)(C)C
IC50: 5.47 µM (inactive)
